Type in all cases: binding
The target of assay [1] is T1, CxD7L2 (Culex quinquefasciatus, UniProt B0X6Z1).
T1 construct: gene D7L2; full-length mature protein, C-terminal 6x-His, HEK293
Kind of assay: ITC. (In ITC the heat of successive injections is recorded.)

The target in assay [2] is T2, CxD7L1 (Culex quinquefasciatus, UniProt A0A1S4K3K8). Kind of assay: ITC. On the set-up: gene D7L1; mature protein, C-terminal 6x-His, HEK293.
Target sequence in this assay (A0A1S4K3K8 17-311 limits assumed): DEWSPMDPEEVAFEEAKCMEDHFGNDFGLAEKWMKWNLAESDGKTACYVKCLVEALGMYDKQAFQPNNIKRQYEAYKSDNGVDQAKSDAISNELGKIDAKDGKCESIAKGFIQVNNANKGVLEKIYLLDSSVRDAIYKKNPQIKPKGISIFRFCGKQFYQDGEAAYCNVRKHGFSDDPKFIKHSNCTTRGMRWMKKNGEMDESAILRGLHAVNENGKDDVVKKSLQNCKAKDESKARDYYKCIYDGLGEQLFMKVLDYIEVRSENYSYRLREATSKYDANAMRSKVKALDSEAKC
The target of assay [3] is T2, CxD7L1. Briefly: crystal structure ([…] Å) and ITC. Also noted: gene D7L1; mature protein.
Target sequence in this assay (A0A1S4K3K8 17-311): as the sequence (A0A1S4K3K8 17-311 limits assumed) above

Broadly, the Kd is the concentration at which binding is half-saturated. A high value points to a looser complex.

T1 sequence (B0X6Z1 21-313 limits assumed): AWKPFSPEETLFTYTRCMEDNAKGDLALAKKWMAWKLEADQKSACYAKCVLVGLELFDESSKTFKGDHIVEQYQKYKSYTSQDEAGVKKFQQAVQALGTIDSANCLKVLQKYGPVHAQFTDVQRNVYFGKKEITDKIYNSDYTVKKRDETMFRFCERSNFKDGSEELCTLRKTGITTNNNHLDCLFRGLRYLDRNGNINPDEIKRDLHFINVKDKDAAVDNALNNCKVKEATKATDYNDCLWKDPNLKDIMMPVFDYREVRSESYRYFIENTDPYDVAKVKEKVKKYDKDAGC

Consider `CNC[C@H](O)c1ccc(O)c(O)c1` [Epinephrine], for which the Kd in assay [1] was determined as 226 nM. `Nc1ncnc2c1ncn2[C@@H]1O[C@H](CO)[C@@H](O)[C@H]1O` [Adenosine] returned a Kd in assay [2] of 313 nM. Take `Nc1ncnc2c1ncn2[C@@H]1O[C@H](COP(=O)(O)OP(=O)(O)O)[C@@H](O)[C@H]1O` [ADP]: the Kd in assay [3] turned out to be 32.7 nM.

The values are drawn from PMC7283271, “ADP binding by the Culex quinquefasciatus mosquito D7 salivary protein enhances blood feeding on mammals” (Nature Communications, 2020).
